Literature values in patent US6439069B1, “Method and apparatus for detecting subterranean termites” (priority 1999, dated 2002).

How the values were obtained:
subterranean termites = conditions: for 20-30 years or more
foraging termites = conditions: food sources impregnated with 0.5% of the substance

ClC1=C(Cl)C2(Cl)C3C(Cl)C(Cl)CC3C1(Cl)C2(Cl)Cl (stereo not drawn) [chlordane]
control of subterranean termites (subterranean termites): 100%

O.O.O.O.O=BOB1OB(OB=O)OB2OB([O-])OB([O-])OB(O1)O2.[Na+].[Na+] [disodium octaborate tetrahydrate]
palatability of impregnated food source (foraging termites): acceptably palatable

ClC1=C(Cl)C2(Cl)C3C(Cl)C=CC3C1(Cl)C2(Cl)Cl (stereo not drawn) [heptachlor]
control of subterranean termites (subterranean termites): 100%
